According to ChEMBL document CHEMBL1158148, “Characterization of an irritant 4-deoxyphorbol diester from Euphorbia tirucalli” (J Nat Prod, 1979):

Assays:
[1] = organism: Mus musculus; assay: Toxicity against Swiss-Webster mouse assessed as irritation in ear per 5 ul after 4 hrs; assay type: organism-based; conditions: in vivo, topical_or_ocular
[2] = organism: Mus musculus; assay: Toxicity against Swiss-Webster mouse assessed as irritation in ear per 5 ul after 24 hrs; assay type: organism-based; conditions: in vivo, topical_or_ocular

## CC1=C[C@H]2[C@@]3(O)[C@H](C)[C@@H](OC(=O)c4ccccc4)[C@]4(OC(=O)c5ccccc5)[C@H]([C@@H]3C=C(CO)C[C@]2(O)C1=O)C4(C)C
[1]
  ID50: 0.6 µg
[2]
  ID50: 0.83 µg

## CCC/C=C/C=C\C(=O)O[C@@H]1[C@@H](C)[C@]2(O)[C@@H]3C=C(C)C(=O)[C@@H]3CC(CO)=C[C@H]2[C@@H]2C(C)(C)[C@]12O
[1]
  ID50: > 100 µg
[2]
  ID50: > 100 µg

## CCC/C=C/C=C\C(=O)O[C@@H]1[C@@H](C)[C@]2(O)[C@@H]3C=C(C)C(=O)[C@H]3CC(CO)=C[C@H]2[C@@H]2C(C)(C)[C@]12OC(C)=O
[1]
  ID50: 0.04 µg
[2]
  ID50: 0.07 µg

## CCCCCCCCCCCCCC(=O)O[C@@H]1[C@@H](C)[C@@]2(O)[C@@H](C=C(CO)C[C@]3(O)C(=O)C(C)=C[C@@H]23)[C@@H]2C(C)(C)[C@]12OC(C)=O [PHORBOL MYRISTATE ACETATE]
[1]
  ID50: 0.04 µg
[2]
  ID50: 0.05 µg
